Data on 58 molecules can be found in PMC9134086, “Inhibition of Dipeptidyl Peptidase-4 by Flavonoids: Structure–Activity Relationship, Kinetics and Interaction Mechanism” (Frontiers in Nutrition, 2022).

By IC50 is commonly meant the point on the concentration scale where inhibition reaches its midpoint. By % Inhibition is commonly meant the relative decrease from the control value, in per cent. In general, inhibition refers to the share of the control response that was lost under treatment.

The first assay deals with T1, DPP-4 (human recombinant) (Homo sapiens, UniProt P27487).
T1 construct: purchased Sigma Aldrich D3446
T1 sequence (P27487 whole entry): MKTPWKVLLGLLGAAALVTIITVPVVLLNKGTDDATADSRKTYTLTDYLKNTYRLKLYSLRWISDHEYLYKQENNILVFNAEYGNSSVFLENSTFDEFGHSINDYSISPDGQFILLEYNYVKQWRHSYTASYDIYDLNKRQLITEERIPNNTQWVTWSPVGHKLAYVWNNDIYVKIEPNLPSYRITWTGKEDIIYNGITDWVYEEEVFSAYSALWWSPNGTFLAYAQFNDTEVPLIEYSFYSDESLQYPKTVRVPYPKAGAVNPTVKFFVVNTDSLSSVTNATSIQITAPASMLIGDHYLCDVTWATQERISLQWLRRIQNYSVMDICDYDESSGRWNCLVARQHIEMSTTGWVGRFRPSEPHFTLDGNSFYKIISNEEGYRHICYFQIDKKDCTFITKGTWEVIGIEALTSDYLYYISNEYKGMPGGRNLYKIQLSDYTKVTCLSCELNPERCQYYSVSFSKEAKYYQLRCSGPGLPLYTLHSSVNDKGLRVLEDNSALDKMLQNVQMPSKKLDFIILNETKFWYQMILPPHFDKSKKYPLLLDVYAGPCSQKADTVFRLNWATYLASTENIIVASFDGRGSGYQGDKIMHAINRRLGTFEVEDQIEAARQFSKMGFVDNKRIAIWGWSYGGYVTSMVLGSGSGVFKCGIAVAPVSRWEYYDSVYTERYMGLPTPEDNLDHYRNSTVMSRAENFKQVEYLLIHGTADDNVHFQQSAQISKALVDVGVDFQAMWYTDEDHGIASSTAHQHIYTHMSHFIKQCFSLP
Put plainly: In vitro assay for DPP-4 inhibitory activity (fluorescence, Gly-Pro-AMC).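 Also: fluorescence of released AMC (excitation 360 nm, emission 460 nm) followed kinetically over 30 min at 37 °C in Tris-HCl pH 8.0.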 It counts as biochemical. The conditions noted are these: DPP-4 inhibition, fluorescence method.
Consider `O=c1c(O)c(-c2cc(O)c(O)c(O)c2)oc2cc(O)cc(O)c12` [E19, Myricetin], for which the IC50 was under 200 µM.

The assay is the same for the next values; noted with them: flavonoid 200 μM; mean ± SD, three independent experiments.
Regarding `COc1ccc(CCC(=O)c2c(O)cc(O[C@@H]3O[C@H](CO)[C@@H](O)[C@H](O)[C@H]3O[C@@H]3O[C@@H](C)[C@H](O)[C@@H](O)[C@H]3O)cc2O)cc1O` [G2, Neosperidin dihydrochalcone], the “% Inhibition at 200μM” value amounted to 17.15 ± 0.23%.
Same read-out and setting: the result for Myricitrin [E20] reads 39.8 ± 0.78%.

Staying with this assay, now noted: flavonoid 200 μM; mean ± SD, three independent experiments; read-out: % Inhibition at 200μM.
Take `O=c1cc(-c2ccccc2)oc2cc(O)cc(O)c12` [A3, Chrysin]: the inhibition at 200 µM worked out at 26.1 ± 3.07%.
For `COc1ccc(-c2cc(=O)c3c(O)cc(O)cc3o2)cc1O` [A4, Diosmetin], the inhibition at 200 µM turned out to be 22.2 ± 1.22%.
Still for that read-out and setting: to `COc1ccc(-c2cc(=O)c3c(O)cc(O[C@@H]4O[C@H](CO[C@@H]5O[C@@H](C)[C@H](O)[C@@H](O)[C@H]5O)[C@@H](O)[C@H](O)[C@H]4O)cc3o2)cc1O` [A5, Diosmin] belongs 16.4 ± 1.73%; to `O=c1cc(-c2ccc(O)c(O)c2)oc2cc(O)c([C@@H]3O[C@H](CO)[C@@H](O)[C@H](O)[C@H]3O)c(O)c12` [A6, Isoorientin], 42.63 ± 0.33%.
For `O=c1cc(-c2ccc(O)cc2)oc2cc(O)c([C@@H]3O[C@H](CO)[C@@H](O)[C@H](O)[C@H]3O)c(O)c12` [A7, Isovitexin], the inhibition at 200 µM amounted to 42.4 ± 1.23%.
In the case of `O=c1cc(-c2ccc(O)c(O)c2)oc2cc(O)cc(O)c12` [A8, Luteolin], the inhibition at 200 µM stood at 47.5 ± 0.89%.
For `O=C(O)C1OC(Oc2cc(O)c3c(=O)cc(-c4ccc(O)c(O)c4)oc3c2)C(O)C(O)C1O` (centres unmarked) [A9, Luteolin 7-O-glucuronide], the inhibition at 200 µM amounted to 35.65 ± 0.11%.
With `O=c1cc(-c2ccc(O)c(O)c2)oc2cc(O[C@@H]3O[C@H](CO)[C@@H](O)[C@H](O)[C@H]3O)cc(O)c12` [A10, Luteoloside], the inhibition at 200 µM amounted to 45.6 ± 0.62%.
Same read-out and setting: to `COc1ccc(-c2cc(=O)c3c(OC)c(OC)c(OC)c(OC)c3o2)cc1` [A13, Tangeretin] belongs 14.2 ± 1.06%.
Same read-out and setting: to `O=c1cc(-c2ccc(OC3OC(CO)C(O)C(O)C3O)cc2)oc2c(C3OC(CO)C(O)C(O)C3O)c(O)cc(O)c12` (centres unmarked) [A16, Vitexin 4'-O-glucoside] belongs 45.9 ± 1.48%.
Still for that read-out and setting: to `COc1ccc(-c2coc3cc(O)cc(O)c3c2=O)cc1` [B1, Biochanin A] belongs 14.3 ± 1.48%; to `COc1ccc(-c2coc3cc(O)ccc3c2=O)cc1O` [B2, Calycosin], 43 ± 2.41%; to `O=c1c(-c2ccc(O)cc2)coc2cc(O)ccc12` [B3, Daidzein], 19.2 ± 3.44%.
On to `COc1ccc(-c2coc3cc(O)ccc3c2=O)cc1` [B4, Formononetin], for which the inhibition at 200 µM is 17.6 ± 0.19%.
In the case of `O=c1c(-c2ccc(O)cc2)coc2cc(O)cc(O)c12` [B5, Genistein], the inhibition at 200 µM stood at 15.3 ± 0.21%.
In the case of `COc1cc(O)c2c(=O)cc(-c3ccc(O)cc3)oc2c1` [B6, Genkwanin], the inhibition at 200 µM amounted to 20.8 ± 1.92%.
`O=C1c2c(O)cc(O)cc2O[C@H](c2ccc(O)cc2O)[C@H]1O` [C1, Dihydromorin]: the inhibition at 200 µM was 30.9 ± 1.22%.
Turning to `O=C1c2c(O)cc(O)cc2O[C@H](c2cc(O)c(O)c(O)c2)[C@H]1O` [C2, Dihydromyricetin], the inhibition at 200 µM turned out to be 20.6 ± 0.36%.
As to `COc1ccc([C@@H]2CC(=O)c3c(O)cc(O)cc3O2)cc1O` [C3, Hesperetin], the inhibition at 200 µM was under 10%.
Consider `O=C1C[C@@H](c2ccc(O)cc2)Oc2cc(O)ccc21` [C5, Liquiritigenin], for which the inhibition at 200 µM was found to be 17.1 ± 0.94%.
Take `Oc1cc(O)c2c(c1)OC(c1ccc(O)c(O)c1)C(O)C2` (centres unmarked) [D1, Catechin]: the inhibition at 200 µM is under 10%.
Consider `Oc1cc(O)c2c(c1)O[C@H](c1ccc(O)c(O)c1)[C@H](O)C2` [D2, Epicatechin], for which the inhibition at 200 µM was under 10%.
Turning to `O=C(O[C@@H]1Cc2c(O)cc(O)cc2O[C@@H]1c1cc(O)c(O)c(O)c1)c1cc(O)c(O)c(O)c1` [D3, Epigallocatechin gallate], the inhibition at 200 µM is under 10%.
On to `O=c1c(O[C@@H]2O[C@@H](CO)[C@H](O)[C@H]2O)c(-c2ccc(O)c(O)c2)oc2cc(O)cc(O)c12` [E1, Avicularin], for which the inhibition at 200 µM came to 27.1 ± 0.42%.
For `O=c1c(O)c(-c2ccccc2)oc2cc(O)cc(O)c12` [E2, Galangin], the inhibition at 200 µM stood at 38.26 ± 0.36%.
Turning to `O=c1c(O[C@@H]2O[C@H](CO)[C@@H](O)[C@H](O)[C@H]2O)c(-c2ccc(O)c(O)c2)oc2cc(O)cc(O)c12` [E5, Isoquercitrin], the inhibition at 200 µM worked out at 36.9 ± 1.13%.
On the same count and under the same terms, to `COc1cc(-c2oc3cc(O)cc(O)c3c(=O)c2OC2OC(CO)C(O)C(O)C2O)ccc1O` (centres unmarked) [E7, Isorhamnetin 3-O-glucoside] belongs 38.6 ± 1.41%; to `COc1cc(-c2oc3cc(O)cc(O)c3c(=O)c2OC2OC(CO)C(O)C(O)C2OC2OC(C)C(O)C(O)C2O)ccc1O` (centres unmarked) [E8, Isorhamnetin 3-O-neohesperidin], 40.6 ± 0.42%.
`COc1ccc(-c2oc3cc(O)cc(O)c3c(=O)c2O)cc1` [E9, Kaempferide]: the inhibition at 200 µM stood at 15.7 ± 0.58%.
With `C[C@@H]1O[C@@H](Oc2cc(O)c3c(=O)c(O[C@@H]4O[C@@H](C)[C@H](O)[C@@H](O)[C@H]4O)c(-c4ccc(O)cc4)oc3c2)[C@H](O)[C@H](O)[C@H]1O` [E10, Kaempferitrin], the inhibition at 200 µM came to 19.3 ± 0.47%.
For the molecule `O=c1c(O)c(-c2ccc(O)cc2)oc2cc(O)cc(O)c12` [E11, Kaempferol], the inhibition at 200 µM amounted to 32.23 ± 0.19%.
Same read-out and setting: the result for `O=c1c(OC2OC(CO)C(O)C(O)C2O)c(-c2ccc(O)cc2)oc2cc(O)cc(O)c12` (centres unmarked) [E13, Kaempferol 3-O-galactoside] reads 46.3 ± 1.57%; that for `CC1OC(OCC2OC(Oc3c(-c4ccc(O)cc4)oc4cc(O)cc(O)c4c3=O)C(O)C(O)C2O)C(O)C(O)C1O` (centres unmarked) [E14, Kaempferol 3-O-rutinoside], 36.83 ± 0.01%; that for `O=c1c(OC2OC(CO)C(O)C(O)C2OC2OC(CO)C(O)C(O)C2O)c(-c2ccc(O)cc2)oc2cc(O)cc(O)c12` (centres unmarked) [E15, Kaempferol 3-O-sophoroside], 43.2 ± 1.48%.
With `O=c1c(O)c(-c2ccc(OC3OC(CO)C(O)C(O)C3O)cc2)oc2cc(O)cc(O)c12` (centres unmarked) [E16, Kaempferol 4'-O-glucoside], the inhibition at 200 µM was determined as 37.2 ± 0.64%.
`O=c1c(O)c(-c2ccc(O)cc2O)oc2cc(O)cc(O)c12` [E18, Morin]: the inhibition at 200 µM came to 42.8 ± 0.91%.
Still for that read-out and setting: to `COc1c(-c2ccc(O)c(O)c2)oc2cc(O)cc(O)c2c1=O` [E22, 3-O-Methylquercetin] belongs 45.6 ± 0.78%; to `O=c1c(OC2OC(CO)C(O)C(O)C2O)c(-c2ccc(O)c(O)c2)oc2cc(OC3OC(COC4OC(CO)C(O)C(O)C4O)C(O)C(O)C3O)cc(O)c12` (centres unmarked) [E24, Quercetin 3-O-glu-7-O-gentiobioside], 33.9 ± 1.07%.
As for `CC1OC(Oc2cc(O)c3c(=O)c(O)c(-c4ccc(O)c(O)c4)oc3c2)C(O)C(O)C1O` (centres unmarked) [E25, Quercetin 7-O-rhamnoside], the inhibition at 200 µM stood at 48.96 ± 0.12%.
With `C[C@@H]1O[C@@H](Oc2c(-c3ccc(O)c(O)c3)oc3cc(O)cc(O)c3c2=O)[C@H](O)[C@H](O)[C@H]1O` [E26, Quercitrin], the inhibition at 200 µM was found to be 47.65 ± 0.36%.
For the molecule `COc1cc(O)c2c(=O)c(O)c(-c3ccc(O)c(O)c3)oc2c1` [E27, Rhamnetin], the inhibition at 200 µM was determined as 22.2 ± 0.63%.
Take `C[C@@H]1O[C@@H](OC[C@H]2O[C@@H](Oc3c(-c4ccc(O)c(O)c4)oc4cc(O)cc(O)c4c3=O)[C@H](O)[C@@H](O)[C@@H]2O)[C@H](O)[C@H](O)[C@H]1O` [E28, Rutin]: the inhibition at 200 µM was 42.7 ± 1.28%.
For `Oc1cc(O)c2cc(O)c(-c3ccc(O)c(O)c3)[o+]c2c1` [F1, Cyanidin], the inhibition at 200 µM was 18.8 ± 0.4%.
For the molecule `COc1cc(-c2[o+]c3cc(O)cc(OC4OC(CO)C(O)C(O)C4O)c3cc2OC2OC(CO)C(O)C(O)C2O)cc(OC)c1O` (centres unmarked) [F4, Malvin], the inhibition at 200 µM is 13.7 ± 2.07%.
As to `Oc1ccc(-c2[o+]c3cc(O)cc(O)c3cc2O)cc1` [F5, Pelargonidin], the inhibition at 200 µM is under 10%.
Turning to `O=C(CCc1ccc(O)cc1)c1c(O)cc(O)cc1O[C@@H]1O[C@H](CO)[C@@H](O)[C@H](O)[C@H]1O` [G4, Phlorizin], the inhibition at 200 µM is under 10%.

The same assay, now with this note: read-out: % Inhibition at 200μM.
For the molecule `C[C@@H]1O[C@@H](OC[C@H]2O[C@@H](Oc3cc(O)c4c(c3)O[C@H](c3ccc(O)cc3)CC4=O)[C@H](O)[C@@H](O)[C@@H]2O)[C@H](O)[C@H](O)[C@H]1O` [A11, Narirutin], the inhibition at 200 µM was 13.97 ± 0.13%.
Same read-out and setting: to `O=c1cc(-c2ccc(O)c(O)c2)oc2c([C@@H]3O[C@H](CO)[C@@H](O)[C@H](O)[C@H]3O)c(O)cc(O)c12` [A12, Orientin] belongs 38.6 ± 2.1%.
Take `O=c1cc(-c2ccc(O)cc2)oc2c([C@@H]3O[C@H](CO)[C@@H](O)[C@H](O)[C@H]3O)c(O)cc(O)c12` [A14, Vitexin]: the inhibition at 200 µM was determined as 27 ± 1.35%.
Turning to `COc1ccc(C2CC(=O)c3c(O)cc(OC4OC(COC5OC(C)C(O)C(O)C5O)C(O)C(O)C4O)cc3O2)cc1O` (centres unmarked) [C4, Hesperidin], the inhibition at 200 µM is under 10%.
`O=c1c(O)c(-c2ccc(O)cc2)oc2c(O)c(O)cc(O)c12` [E3, Herbacetin]: the inhibition at 200 µM was determined as 25.7 ± 1.82%.
For the molecule `COc1cc(-c2oc3cc(O)cc(O)c3c(=O)c2O)ccc1O` [E6, Isorhamnetin], the inhibition at 200 µM amounted to 29.4 ± 1.52%.
On the same count and under the same terms, the result for `O=c1c(O)c(-c2ccc(O)cc2)oc2cc(OC3OC(CO)C(O)C(O)C3O)cc(O)c12` (centres unmarked) [E17, Kaempferol 7-O-glucoside] reads 48.8 ± 1.07%; that for `COc1cc(-c2[o+]c3cc(O)cc(O)c3cc2OC2OC(CO)C(O)C(O)C2O)cc(OC)c1O` (centres unmarked) [F3, Malvidin 3-O-glucoside], 15 ± 2.42%; that for `O=C(CCc1ccc(O)cc1)c1c(O)cc(O)cc1O` [G3, Phloretin], 17.8 ± 1.21%.

A further assay concerns the target T1, DPP-4 (human recombinant). Description: Fluorescence quenching experiments (Stern-Volmer, binding constant, thermodynamic parameters).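 Also: intrinsic DPP-4 fluorescence emission scanned 290–500 nm, corrected for flavonoid background and inner-filter absorbance, compared without versus with flavonoid quencher.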 The note with it: 310 K.
With `O=c1c(O)c(-c2cc(O)c(O)c(O)c2)oc2cc(O)cc(O)c12` [E19, Myricetin], the “ΔG (Gibbs free-energy change)” value is -5.946 kcal/mol.
